{"source": "patent US10087178B2", "about": "“Substituted spiropyrido[1,2-a]pyrazine derivative and medicinal use thereof as HIV integrase inhibitor” (priority 2012, dated 2018)", "note": "Structures can show the parent of a compound that is named as a salt.", "data": [{"tested_on": "HIV-1 NL4-3 strain", "test": "Evaluation of antiviral activity: acute infection system of MT-4 cell with HIV-1 NL4-3 strain", "type": "cell-based", "details": "Human immunodeficiency virus 1, NL43, MT4, 120 h, MT-4 cells infected with HIV-1 NL4-3 strain (MOI 0.05), cultured 5 days, Cell Titer-Glo; read-out: antiviral activity (EC50)", "units": {"EC50": "nM"}, "values": [{"smiles": "CN1C[C@]2(C[C@@H](O)C2)n2cc(C(=O)NCc3cccc(Cl)c3F)c(=O)c(O)c2C1=O", "note": "[Example S26, N-(3-chloro-2-fluorobenzyl)- trans-3,9′-dihydroxy-2′-methyl-1′,8′-dioxo-1′,2′,3′,8′-tetrahydrospiro[cyclobutane-1,4′-pyrido[1,2-a]pyrazine]-7′-carboxamide hydrochloride]", "EC50": 3.4}, {"smiles": "CCOC[C@H]1C[C@@]12CN(C)C(=O)c1c(O)c(=O)c(C(=O)NCc3ccc(OC)c(Cl)c3F)cn12", "note": "[Example T31, (1S,2S)-N-(3-chloro-2-fluoro-4-methoxybenzyl)-2-(ethoxymethyl)-9′-hydroxy-2′-methyl-1′,8′-dioxo-1′,2′,3′,8′-tetrahydrospiro[cyclopropane-1,4′-pyrido[1,2-a]pyrazine]-7′-carboxamide]", "EC50": 12}, {"smiles": "COC[C@H]1C[C@@]12CN(C)C(=O)c1c(O)c(=O)c(C(=O)NCc3cccc(Cl)c3F)cn12", "note": "[Example T16, (1S.2S)-N-(3-chloro-2-fluorobenzyl)-9′-hydroxy-2-(methoxymethyl)-2′-methyl-1′,8′-dioxo-1′,2′,3′,8′-tetrahydrospiro[cyclopropane-1,4′-pyrido[1,2-a]pyrazine]-7′-carboxamide hydrochloride]", "EC50": 4.2}, {"smiles": "CCN1C(=O)c2c(O)c(=O)c(C(=O)NCc3cccc(Cl)c3F)cn2C[C@]12C[C@@H](COC)C2", "note": "[Example S59, N-(3-chloro-2-fluorobenzyl)-2′-ethyl-9′-hydroxy-trans-3-(methoxymethyl)-1′,8′-dioxo-1′,2′,4′,8′-tetrahydrospiro[cyclobutane-1,3′-pyrido[1,2-a]pyrazine]-7′-carboxamide hydrochloride]", "EC50": 4}, {"smiles": "CN1C(=O)c2c(O)c(=O)c(C(=O)NCc3cccc(Cl)c3F)cn2C[C@]12C[C@H]2CO", "note": "[Example T49, (1R,2R)-N-(3-chloro-2-fluorobenzyl)-9′-hydroxy-2-(hydroxymethyl)-2′-methyl-1′,8′-dioxo-1′,2′,4′,8′-tetrahydrospiro[cyclopropane-1,3′-pyrido[1,2-a]pyrazine]-7′-carboxamide]", "EC50": 7.2}, {"smiles": "CO[C@H]1C[C@]2(CN(C)C(=O)c3c(O)c(=O)c(C(=O)NCc4cccc(Cl)c4F)cn32)C1", "note": "[Example 23, N-(3-chloro-2-fluorobenzyl)-9′-hydroxy-cis-3-methoxy-2′-methyl-1′,8′-dioxo-1′,2′,3′,8′-tetrahydrospiro[cyclobutane-1,4′-pyrido[, 2-a]pyrazine]-7′-carboxamide]", "EC50": 1.6}, {"smiles": "COC[C@H]1C[C@@]2(CN(C(C)C)C(=O)c3c(O)c(=O)c(C(=O)NCc4ccc(F)cc4F)cn32)C1", "note": "[Example S25, N-(2,4-difluorobenzyl)-9′-hydroxy-2′-isopropyl-trans-3-(methoxymethyl)-1′,8′-dioxo-1′,2′,3′,8′-tetrahydrospiro[cyclobutane-1,4′-pyrido[1,2-a]pyrazine]-7′-carboxamide hydrochloride]", "EC50": 7}, {"smiles": "CCCO[C@H]1C[C@@]2(CN(C)C(=O)c3c(O)c(=O)c(C(=O)NCc4cccc(Cl)c4F)cn32)C1", "note": "[Example S42, N-(3-chloro-2-fluorobenzyl)-9′-hydroxy-2′-methyl-1′,8′-dioxo-trans-3-propoxy-1′,2′,3′,8′-tetrahydrospiro[cyclobutane-1,4′-pyrido[1,2-a]pyrazine]-7′-carboxamide hydrochloride]", "EC50": 4.3}, {"smiles": "CC(C)N1C(=O)c2c(O)c(=O)c(C(=O)NCc3ccc(F)cc3F)cn2C[C@@]12C[C@@H]2CO", "note": "[Example T42, (1S,2S)-N-(2,4-difluorobenzyl)-9′-hydroxy-2-(hydroxymethyl)-2′-isopropyl-1′,8′-dioxo-1′,2′,4′,8′-tetrahydrospiro[cyclopropane-1,3′-pyrido[1,2-a]pyrazine]-7′-carboxamide]", "EC50": 3.7}]}, {"tested_on": "HIV-1 NL4-3 strain", "test": "Evaluation of antiviral activity: acute infection system of MT-4 cell with HIV-1 NL4-3 strain", "type": "cell-based", "details": "Human immunodeficiency virus 1, NL43, MT4, 120 h, antiviral activity; MT-4 cells infected with HIV-1 NL4-3 (MOI 0.05), 5 days culture, Cell Titer-Glo luminescence", "units": {"EC50": "nM"}, "values": [{"smiles": "CC(C)N1C[C@@]2(C[C@H]2CO)n2cc(C(=O)NCc3ccc(F)cc3F)c(=O)c(O)c2C1=O", "note": "[Example 15, (1S,2R)—N-(2,4-difluorobenzyl)-9′-hydroxy-2-(hydroxymethyl)-2′-isopropyl-1′,8′-dioxo-1′,2′,3′,8′-tetrahydrospiro[cyclopropane-1,4′-pyrido[1,2-a]pyrazine]-7′-carboxamide hydrochloride]", "EC50": 7.2}, {"smiles": "COC[C@H]1C[C@]2(CN(C)C(=O)c3c(O)c(=O)c(C(=O)NCc4cccc(Cl)c4F)cn32)C1", "note": "[Example 3, N-(3-chloro-2-fluorobenzyl)-9′-hydroxy-cis-3-(methoxymethyl)-2′-methyl-1′,8′-dioxo-1′,2′,3′,8′-tetrahydrospiro[cyclobutane-1,4′-pyrido[1,2-a]pyrazine]-7′-carboxamide hydrochloride]", "EC50": 3.2}, {"smiles": "CC(C)N1C[C@]2(C[C@H]2CO)n2cc(C(=O)NCc3ccc(F)cc3F)c(=O)c(O)c2C1=O", "note": "[Example 11, (1R,2R)—N-(2,4-difluorobenzyl)-9′-hydroxy-2-(hydroxymethyl)-2′-isopropyl-1′,8′-dioxo-1′,2′,3′,8′-tetrahydrospiro[cyclopropane-1,4′-pyrido[1,2-a]pyrazine]-7′-carboxamide hydrochloride]", "EC50": 5.8}]}, {"tested_on": "HIV-1 NL4-3 strain", "test": "Evaluation of antiviral activity: acute infection system of MT-4 cell with HIV-1 NL4-3 strain", "type": "cell-based", "details": "Human immunodeficiency virus 1, NL43, MT4, 120 h, antiviral activity; MT-4 cells infected with HIV-1 NL4-3 (MOI 0.05), 5 days culture, Cell Titer-Glo luminescence; read-out: EC50", "units": {"EC50": "nM"}, "values": [{"smiles": "CCO[C@H]1C[C@]2(CN(CC)C(=O)c3c(O)c(=O)c(C(=O)NCc4ccc(F)cc4F)cn32)C1", "note": "[Example S21, N-(2,4-difluorobenzyl)-cis-3-ethoxy-2′-ethyl-9′-hydroxy-1′,8′-dioxo-1′,2′,3′,8′-tetrahydrospiro[cyclobutane-1,4′-pyrido[1,2-a]pyrazine]-7′-carboxamide hydrochloride]", "EC50": 3.8}, {"smiles": "CCN1C(=O)c2c(O)c(=O)c(C(=O)NCc3cccc(Cl)c3F)cn2C[C@]12C[C@H]2COC", "note": "[Example 18, (1R,2R)—N-(3-chloro-2-fluorobenzyl)-2′-ethyl-9′-hydroxy-2-(methoxymethyl)-1′,8′-dioxo-1′,2′,4′,8′-tetrahydrospiro[cyclopropane-1,3′-pyrido[1,2-a]pyrazine]-7′-carboxamide]", "EC50": 2.6}, {"smiles": "CN1C[C@]2(C[C@@H](OCc3ccccc3)C2)n2cc(C(=O)NCc3ccc(F)cc3F)c(=O)c(O)c2C1=O", "note": "[Example S9, trans-3-(benzyloxy)-N-(2,4-difluorobenzyl)-9′-hydroxy-2′-methyl-1′,8′-dioxo-1′,2′,3′,8′-tetrahydrospiro[cyclobutane-1,4′-pyrido[1,2-a]pyrazine]-7′-carboxamide hydrochloride]", "EC50": 5.2}, {"smiles": "CC(C)N1CC2(CC(O)C2)n2cc(C(=O)NCc3ccc(F)cc3F)c(=O)c(O)c2C1=O", "note": "(single isomer, unassigned) [Example S3, N-(2,4-difluorobenzyl)- trans-3,9′-dihydroxy-2′-isopropyl-1′,8′-dioxo-1′,2′,3′,8′-tetrahydrospiro[cyclobutane-1,4′-pyrido[1,2-a]pyrazine]-7′-carboxamide hydrobromide]", "EC50": 11}, {"smiles": "CO[C@H]1C[C@]2(CN(C)C(=O)c3c(O)c(=O)c(C(=O)NCc4ccc(F)cc4F)cn32)C1", "note": "[Example S14, N-(2,4-difluorobenzyl)-9′-hydroxy-cis-3-methoxy-2′-methyl-1′,8′-dioxo-1′,2′,3′,8′-tetrahydrospiro[cyclobutane-1,4′-pyrido[1,2-a]pyrazine]-7′-carboxamide hydrochloride]", "EC50": 3.9}]}, {"tested_on": "HIV-1 NL4-3 strain", "test": "Evaluation of antiviral activity: acute infection system of MT-4 cell with HIV-1 NL4-3 strain", "type": "cell-based", "details": "Human immunodeficiency virus 1, NL43, MT4, 120 h, read-out: antiviral activity (EC50), MT-4 cells infected with HIV-1 NL4-3 strain (MOI 0.05), cultured 5 days, Cell Titer-Glo", "units": {"EC50": "nM"}, "values": [{"smiles": "CCOc1cc(Cl)c(F)c(CNC(=O)c2cn3c(c(O)c2=O)C(=O)N(C)C[C@@]32C[C@@H]2COC)c1", "note": "[Example T25, (1S,2S)-N-(3-chloro-5-ethoxy-2-fluorobenzyl)-9′-hydroxy-2-(methoxymethyl)-2′-methyl-1′,8′-dioxo-1′,2′,3′,8′-tetrahydrospiro[cyclopropane-1,4′-pyrido[1,2-a]pyrazine]-7′-carboxamide hydrochloride]", "EC50": 7}, {"smiles": "CCN1C(=O)c2c(O)c(=O)c(C(=O)NCc3cccc(Cl)c3F)cn2C[C@]12C[C@H]2CO", "note": "[Example T46, (1R,2R)-N-(3-chloro-2-fluorobenzyl)-2′-ethyl-9′-hydroxy-2-(hydroxymethyl)-1′,8′-dioxo-1′,2′,4′,8′-tetrahydrospiro[cyclopropane-1,3′-pyrido[1,2-a]pyrazine]-7′-carboxamide hydrochloride]", "EC50": 3.4}]}, {"tested_on": "HIV-1 NL4-3 strain", "test": "Evaluation of antiviral activity: acute infection system of MT-4 cell with HIV-1 NL4-3 strain", "type": "cell-based", "details": "Human immunodeficiency virus 1, NL43, MT4, 120 h; read-out: antiviral activity (EC50)", "units": {"EC50": "nM"}, "values": [{"smiles": "COC[C@H]1C[C@]2(CN(C)C(=O)c3c(OC(=O)/C=C/C(=O)O)c(=O)c(C(=O)NCc4cccc(Cl)c4F)cn32)C1", "note": "[Example 39, (E)-4-[7′-(3-chloro-2-fluorobenzylcarbamoyl)-cis-3-(methoxymethyl)-2′-methyl-1′,8′-dioxo-1′,2′,3′,8′-tetrahydrospiro[cyclobutane-1,4′-pyrido[1,2-a]pyrazin]-9′-yloxy]-4-oxobut-2-enoic acid]", "EC50": 1.4}]}, {"tested_on": "HIV-1 NL4-3 strain", "test": "Evaluation of antiviral activity: acute infection system of MT-4 cell with HIV-1 NL4-3 strain", "type": "cell-based", "details": "MT-4 cells infected with HIV-1 NL4-3 strain (MOI 0.05), cultured 5 days, Cell Titer-Glo; hydrobromide; read-out: antiviral activity (EC50)", "units": {"EC50": "nM"}, "values": [{"smiles": "COC[C@H]1C[C@]2(CN(C)C(=O)c3c(O)c(=O)c(C(=O)NCc4cccc(Cl)c4F)cn32)C1", "note": "[Example 31, N-(3-chloro-2-fluorobenzyl)-9′-hydroxy-cis-3-(methoxymethyl)-2′-methyl-1′,8′-dioxo-1′,2′,3′,8′-tetrahydrospiro[cyclobutane-1,4′-pyrido[1,2-a]pyrazine]-7′-carboxamide hydrobromide]", "EC50": 1.9}]}, {"tested_on": "HIV-1 NL4-3 strain", "test": "Evaluation of antiviral activity: acute infection system of MT-4 cell with HIV-1 NL4-3 strain", "type": "cell-based", "details": "MT-4 cells infected with HIV-1 NL4-3 strain (MOI 0.05), cultured 5 days, Cell Titer-Glo; read-out: antiviral activity (EC50)", "units": {"EC50": "nM"}, "values": [{"smiles": "COC[C@H]1C[C@]2(CN(C)C(=O)c3c(O)c(=O)c(C(=O)NCc4cccc(Cl)c4F)cn32)C1", "note": "[Example 28, Monosodium 7′-(3-chloro-2-fluorobenzylcarbamoyl)-cis-3-(methoxymethyl)-2′-methyl-1′,8′-dioxo-1′,2′,3′,8′-tetrahydrospiro[cyclobutane-1,4′-pyrido[1,2-a]pyrazin]-9′-olate]", "EC50": 2.2}]}]}
